From ChEMBL document CHEMBL1201862, “PubChem BioAssay data set” (2004)
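Dose response: 5 concentrations. Exposure: 48 h. Format: 96-well plates. Endpoint: linear interpolation; highest concentration if not reached. GI50: concentration for 50% inhibition of growth.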 Calls of active or inactive are those of the source. Rule as the data show it: active = GI50 up to about 1.1 µM and inactive = higher.

Assays:
Experiment in all cases: NCI tumour cell line growth inhibition, 48 h
HCC 2998 = test system: HCC 2998
SF-295 = test system: SF-295
UACC-257 = test system: UACC-257
NCI-H522 = test system: NCI-H522
UACC-62 = test system: UACC-62
SK-MEL-2 = test system: SK-MEL-2
SW-620 = test system: SW-620
ACHN = test system: ACHN
BT-549 = test system: BT-549
SF-268 = test system: SF-268
HT-29 = test system: HT-29
SNB-75 = test system: SNB-75
NCI-H460 = test system: NCI-H460
EKVX = test system: EKVX
K562 = test system: K562
786-0 = test system: 786-0
MDA-MB-435 = test system: MDA-MB-435
SNB-19 = test system: SNB-19
OVCAR-4 = test system: OVCAR-4
A498 = test system: A498

Compound	GI50 (HCC 2998)	GI50 (SF-295)	GI50 (UACC-257)	GI50 (NCI-H522)	GI50 (UACC-62)	GI50 (SK-MEL-2)	GI50 (SW-620)	GI50 (ACHN)	GI50 (BT-549)	GI50 (SF-268)	GI50 (HT-29)	GI50 (SNB-75)	GI50 (NCI-H460)	GI50 (EKVX)	GI50 (K562)	GI50 (786-0)	GI50 (MDA-MB-435)	GI50 (SNB-19)	GI50 (OVCAR-4)	GI50 (A498)
CN1CCN(c2ccc3nc(C4=C(O)C(=O)c5c(nc(CO)n5C)C4=O)[nH]c3n2)CC1	> 100 µM (inactive)	> 100 µM (inactive)	> 100 µM (inactive)	> 100 µM (inactive)	74.3 µM (inactive)	55.1 µM (inactive)	> 100 µM (inactive)	> 100 µM (inactive)	> 100 µM (inactive)	> 100 µM (inactive)	> 100 µM (inactive)	24.6 µM (inactive)	> 100 µM (inactive)	> 100 µM (inactive)	59.8 µM (inactive)	> 100 µM (inactive)	> 100 µM (inactive)	> 100 µM (inactive)	> 100 µM (inactive)	–
COc1ccc(/C=C2\OC(=O)C(Cl)=C2c2ccc(OC)cc2)cc1	–	> 100 µM (inactive)	> 100 µM (inactive)	66.2 µM (inactive)	> 100 µM (inactive)	> 100 µM (inactive)	> 100 µM (inactive)	> 100 µM (inactive)	99.5 µM (inactive)	40.4 µM (inactive)	> 100 µM (inactive)	> 100 µM (inactive)	> 100 µM (inactive)	> 100 µM (inactive)	> 100 µM (inactive)	45.6 µM (inactive)	> 100 µM (inactive)	> 100 µM (inactive)	86.9 µM (inactive)	> 100 µM (inactive)
CN1CCc2c(sc3ncn(C)c(=N)c23)C1	–	> 100 µM (inactive)	> 100 µM (inactive)	> 100 µM (inactive)	> 100 µM (inactive)	> 100 µM (inactive)	> 100 µM (inactive)	> 100 µM (inactive)	> 100 µM (inactive)	> 100 µM (inactive)	> 100 µM (inactive)	> 100 µM (inactive)	> 100 µM (inactive)	> 100 µM (inactive)	> 100 µM (inactive)	> 100 µM (inactive)	> 100 µM (inactive)	> 100 µM (inactive)	> 100 µM (inactive)	> 100 µM (inactive)
CCCCCCNC(=O)c1cc(NCc2cc(OC)ccc2OC)ccc1O	26.6 µM (inactive)	12 µM (inactive)	16.9 µM (inactive)	14.3 µM (inactive)	15 µM (inactive)	21.7 µM (inactive)	30.7 µM (inactive)	32.8 µM (inactive)	15.5 µM (inactive)	13.3 µM (inactive)	31.3 µM (inactive)	26.1 µM (inactive)	24.7 µM (inactive)	23.9 µM (inactive)	14.8 µM (inactive)	27.9 µM (inactive)	18.9 µM (inactive)	33 µM (inactive)	22.8 µM (inactive)	–
CCOC(=O)CN1C(=O)c2ccc(NC(=O)C(=O)O)cc2S1(=O)=O	> 100 µM (inactive)	> 100 µM (inactive)	> 100 µM (inactive)	> 100 µM (inactive)	> 100 µM (inactive)	> 100 µM (inactive)	> 100 µM (inactive)	> 100 µM (inactive)	> 100 µM (inactive)	> 100 µM (inactive)	> 100 µM (inactive)	–	> 100 µM (inactive)	> 100 µM (inactive)	> 100 µM (inactive)	> 100 µM (inactive)	> 100 µM (inactive)	> 100 µM (inactive)	> 100 µM (inactive)	> 100 µM (inactive)
COc1cc(C(c2cccc3ccccc23)N2C(=O)CCC2C(=O)NCc2ccccc2)cc(OC)c1OC (centres undefined)	> 100 µM (inactive)	> 100 µM (inactive)	> 100 µM (inactive)	> 100 µM (inactive)	64.6 µM (inactive)	> 100 µM (inactive)	> 100 µM (inactive)	–	> 100 µM (inactive)	> 100 µM (inactive)	> 100 µM (inactive)	–	> 100 µM (inactive)	> 100 µM (inactive)	–	> 100 µM (inactive)	> 100 µM (inactive)	> 100 µM (inactive)	> 100 µM (inactive)	> 100 µM (inactive)
COc1c(-c2nc3ccc(N4CCN(C)CC4)cc3[nH]2)cc(OC)c2[nH]c(CO)nc12	–	> 100 µM (inactive)	> 100 µM (inactive)	65.2 µM (inactive)	> 100 µM (inactive)	> 100 µM (inactive)	74.8 µM (inactive)	> 100 µM (inactive)	> 100 µM (inactive)	> 100 µM (inactive)	79.8 µM (inactive)	48.3 µM (inactive)	91 µM (inactive)	> 100 µM (inactive)	> 100 µM (inactive)	90.8 µM (inactive)	69.5 µM (inactive)	44.4 µM (inactive)	72.6 µM (inactive)	> 100 µM (inactive)
CC12CC3(O)OC(O1)C1(COC(=O)c4ccccc4)C3CC21OC1OC(CO)C(O)C(O)C1O (centres undefined)	> 100 µM (inactive)	> 100 µM (inactive)	> 100 µM (inactive)	> 100 µM (inactive)	> 100 µM (inactive)	> 100 µM (inactive)	> 100 µM (inactive)	> 100 µM (inactive)	> 100 µM (inactive)	> 100 µM (inactive)	> 100 µM (inactive)	–	> 100 µM (inactive)	> 100 µM (inactive)	–	> 100 µM (inactive)	> 100 µM (inactive)	> 100 µM (inactive)	> 100 µM (inactive)	> 100 µM (inactive)
CN(Cc1ccccc1)Cn1ccnc1	–	> 82.6 µM (inactive)	22.4 µM (inactive)	89.3 µM (inactive)	> 100 µM (inactive)	> 100 µM (inactive)	> 100 µM (inactive)	> 100 µM (inactive)	> 100 µM (inactive)	> 100 µM (inactive)	29 µM (inactive)	> 100 µM (inactive)	40.3 µM (inactive)	> 85.1 µM (inactive)	34.7 µM (inactive)	72.9 µM (inactive)	51.4 µM (inactive)	> 100 µM (inactive)	> 100 µM (inactive)	> 91.6 µM (inactive)
O=C1C(NCCF)=C(Cl)C(=O)c2ncccc21	1.21 µM (inactive)	1.49 µM (inactive)	1.4 µM (inactive)	–	0.247 µM (active)	0.179 µM (active)	0.378 µM (active)	1.53 µM (inactive)	1.49 µM (inactive)	1.5 µM (inactive)	2.47 µM (inactive)	0.617 µM (active)	0.429 µM (active)	1.71 µM (inactive)	0.206 µM (active)	1.19 µM (inactive)	0.188 µM (active)	1.39 µM (inactive)	–	1.63 µM (inactive)
CCOC(=O)c1nc2ccccc2nc1Oc1cc(OC)cc(OC)c1	–	> 100 µM (inactive)	> 100 µM (inactive)	46.7 µM (inactive)	> 100 µM (inactive)	> 100 µM (inactive)	> 100 µM (inactive)	> 100 µM (inactive)	> 100 µM (inactive)	76.7 µM (inactive)	> 100 µM (inactive)	–	39.5 µM (inactive)	60.1 µM (inactive)	> 100 µM (inactive)	35.5 µM (inactive)	> 100 µM (inactive)	> 100 µM (inactive)	8.49 µM (inactive)	> 100 µM (inactive)
O=S(=O)(NC(c1ccccc1)(c1cc2ccccc2[nH]1)c1cc2ccccc2n1S(=O)(=O)c1ccccc1)c1ccccc1 (centres undefined)	> 100 µM (inactive)	> 100 µM (inactive)	> 100 µM (inactive)	–	> 100 µM (inactive)	28.9 µM (inactive)	> 100 µM (inactive)	–	> 100 µM (inactive)	> 100 µM (inactive)	> 100 µM (inactive)	> 100 µM (inactive)	> 100 µM (inactive)	> 100 µM (inactive)	> 100 µM (inactive)	> 100 µM (inactive)	> 100 µM (inactive)	> 100 µM (inactive)	> 100 µM (inactive)	> 100 µM (inactive)
O=C(O)CNC(=O)CO/N=C1/C(=C2/C(=O)Nc3ccccc32)Nc2ccccc21	47 µM (inactive)	> 100 µM (inactive)	> 100 µM (inactive)	> 100 µM (inactive)	> 100 µM (inactive)	> 100 µM (inactive)	> 100 µM (inactive)	> 100 µM (inactive)	> 100 µM (inactive)	> 100 µM (inactive)	> 100 µM (inactive)	> 100 µM (inactive)	> 100 µM (inactive)	94.6 µM (inactive)	> 100 µM (inactive)	> 100 µM (inactive)	> 100 µM (inactive)	70.5 µM (inactive)	> 100 µM (inactive)	–
C=CCOCn1ccc(N)nc1=O	> 100 µM (inactive)	> 100 µM (inactive)	> 100 µM (inactive)	> 100 µM (inactive)	> 100 µM (inactive)	–	> 100 µM (inactive)	–	> 100 µM (inactive)	> 100 µM (inactive)	> 100 µM (inactive)	> 100 µM (inactive)	–	> 100 µM (inactive)	> 100 µM (inactive)	> 100 µM (inactive)	> 100 µM (inactive)	> 100 µM (inactive)	–	–
Cc1ccc(-c2nc(Cc3n[nH]c(-c4ccc(C)cc4)n3)n[nH]2)cc1	> 100 µM (inactive)	> 100 µM (inactive)	> 100 µM (inactive)	2.99 µM (inactive)	4.86 µM (inactive)	> 100 µM (inactive)	> 100 µM (inactive)	6.38 µM (inactive)	> 100 µM (inactive)	6.14 µM (inactive)	> 100 µM (inactive)	3.2 µM (inactive)	–	> 100 µM (inactive)	> 100 µM (inactive)	> 100 µM (inactive)	> 100 µM (inactive)	44.2 µM (inactive)	3.75 µM (inactive)	–
